Test results published in US8466202B2, “Anthracenedione compounds” (Sunten Phytotech Co., Ltd., priority 2006, dated 2013).
Several values for one entry are separate records, joined by “and”; a condition that tells them apart may be missing. Equal entries are not always repeated.

Columns and labels:
healthy male S.D. rats [1] = experiment: Feces production in rats given Rheum palmatum Linne extracts for three weeks (Example 2); assay type: in vivo, rat; conditions: oral everyday, Rheum palmatum crude extract 500, Bisacodyl 1.75, Sennosides 3.55, STD03 180, STD05-1 12, STD05-2 24 mg/kg; for Water content: feces; for Pellet count / Wet Weight: total of the six rats in the group
Method: The laxative activities by Rheum palmatum Linne extracts were studied. A crude Rheum palmatum Linne extract and STD05 were obtained from SunTen Phytotech Co., Ltd. (Jhonghe City, Taiwan). Commercial available laxatives, Through® (Chung Mei Pharmaceutical Co., Ltd.; active ingredient: Sennosides 20 mg, as Sennosides A+B 12 mg, Lot. 009A 051) and Dulcolax® (Boehringer Ingelheim, Taiwan, Ltd.; active ingredient: Bisacodyl; Lot. 480-4942) were obtained from a pharmacy.
Forty-two healthy male S.D. rats (8 weeks old; National Laboratory Animal Center, Taiwan) were divided into seven groups (six in each) and tested for the laxative activity by Rheum palmatum Linne extracts. The rats in one group were not fed with any extract or drug and used as negative controls. The rats in the second and third group were given Sennosides (3.55 mg/kg) and Bisacodyl (1.75 mg/kg), respectively, and used as positive controls. The Rats in the other four groups were given Rheum palmatum Linne crude extract (500 mg/kg), filtered crude extract STD03 (180 mg/kg), and STD05 (STD05-1: 12 mg/kg and STD05-2: 24 mg/kg), respectively. All substances were administered orally everyday for three weeks.
The experiments were carried out under conditions in which temperature, humidity, and lighting were all controlled. Each rat was fed standard rat food and water ad libitum in housing that provided a 12-hour light/dark cycle. The rats were divided into seven groups according to the body weights.
The first part of the experiment studied the effect of the above-mentioned extracts on feces production. During the three-week period, any rat that appeared dying was euthanized, dissected, and studied to check for any illness or injures. Any complications or illness were analyzed by H&E stains to determine the cause of death and to allow for dosage reconsiderations for future experiments.
During this period, the body weights of the rats were weighed each day and recorded. Feces of each rat were studied three times during the period for any unusual observations. Specifically, the amounts of feces were weighed on Days 11, 15, 18, and 21. During observation, each rat was placed in a metabolic cage. Feces were collected every twenty-four hours. The number of collected feces pellets was counted, and the pellets' shapes and colors were evaluated. After weighing the moist feces, they were dried in an oven at 100° C. for twenty-four hours. The water content from the feces was calculated according to the following formula: Water content percentage=[(wet weight−dry weight)/wet weight]×100%.
Intestine motility data were expressed as mean±SD. Data were analyzed using the one-way ANOVA method. For comparison within the groups, a Post hoc Comparison was applied. In both feces production and intestine motility analyses, p<0.05 indicates significant differences. For the feces production tests, the data for each group and each time point represent the total wet weight or pellet count of the six rats in the group.

[2] = Enteric absorption rate (statement, no method given); conditions: general statement
[3] = Side effects compared with Rheum palmatum Linne herb extracts (statement, no method given); conditions: general statement
healthy male S.D. rats [4] = experiment: Feces production in rats over the 10-day period (Example 3); assay type: in vivo, rat; conditions: for increase of the feces amount (wet weight): vs control of the same group; for Pellet count / Water content / Wet Weight: Group II, Sennosides 3.35 mg/kg, STD05 24 mg/kg, ARE 24 mg/kg, Chrysophanol 4 mg/kg, Emodin 4 mg/kg
Method: During this period, the body weights of the rats were weighed each day and recorded. Feces of each rat were studied three times during the period for any unusual observations. Specifically, the amounts of feces were weighed on Days 11, 15, 18, and 21. During observation, each rat was placed in a metabolic cage. Feces were collected every twenty-four hours. The number of collected feces pellets was counted, and the pellets' shapes and colors were evaluated. After weighing the moist feces, they were dried in an oven at 100° C. for twenty-four hours. The water content from the feces was calculated according to the following formula: Water content percentage=[(wet weight−dry weight)/wet weight]×100%. (I) The results are summarized in Table 2 below: The aforementioned STD05 and compounds were studied for the laxative activity. Healthy male S.D. rats (BioLASCO Taiwan Co. Ltd.) were divided into three groups (i.e., Groups 1-3) in this study. In Group I, 6 rats, as negative control, were given no treatment; 6 rats, as positive control, were given 3.35 mg/kg/day Sennosides (Through®, Chung Mei Pharmaceutical Co., Ltd; Active ingredient: Sennosides 20 mg, as sennoside A+B 12 mg, Lot. 012F 006); 6 rats were treated STD05 (8 mg/kg/day); 6 rats were treated with an extract fraction containing aloe-emodin, rhein, and emodin (“ARE”, 8 mg/kg/day); 6 rats were treated with Aloe-emodin (4 mg/kg/day); and 6 rats were treated with Rhein (4 mg/kg/day). In Group II, 6 rats, as negative control, were given no treatment; 6 rats, as positive control, were given 3.35 mg/kg/day Sennosides; 6 rats were treated STD05 (24 mg/kg/day); 6 rats were treated with an extract fraction containing ARE (24 mg/kg/day); 6 rats were treated with Chrysophanol (4 mg/kg/day); and 6 rats were treated with Emodin (4 mg/kg/day). In Group III, 6 rats, as negative control, were given no treatment; 6 rats were treated with Physcoin (4 mg/kg/day); and 6 rats were treated with a mixture of chrysophanol and physcion (8 mg/kg/day, “CP”). The experiments were carried out under controlled temperature, humidity, and lighting. Each rat was fed standard rat food and water ad libitum in housing that provided a 12-hour light/dark cycle. For statistical comparison, all of the rats were divided into six sets according to the body weights. The first part of the experiment studied the effect of the test substances on feces production. During the 10-day period, the body weights of the rats were weighed each day and recorded. The rat's feces was also studied three times in the manner described above during the 10-day period for any unusual observations. During the 10-day period, any rat that appeared dying was euthanized, dissected, and examined for any illness or injury. Any complications or illness were analyzed by H&E stains to determine the cause of death and to allow for dosage reconsiderations for future experiments. Summarized in Table 4 below are the effects of the compounds, mixtures, or extracts on the rat body weights. During the period, feces produced by the rats were studied days 1, 5, and 10 in the same manner described above. […] In the 10-day period, the rats administered with STD05 produced more feces (wet weight) that the rats in the control group by about 32%. In addition, the pellet counts for the rats administered with STD05 were greater than those for the control rats by about 20%. Furthermore, STD05 increased the water content in feces by about 18%. The same experiments were conducted on rats administered with physcion, aloe-emodin, chrysophanol, rhein, emodin, CP, and ARE.

[5] = Body weight of rats over the 10-day period (Example 3); assay type: in vivo, rat; design: Body weight Difference: unit not given here; conditions: Group II, Sennosides 3.35 mg/kg/day, STD05 24 mg/kg, ARE 24 mg/kg, Chrysophanol 4 mg/kg, Emodin 4 mg/kg
Method: The aforementioned STD05 and compounds were studied for the laxative activity. Healthy male S.D. rats (BioLASCO Taiwan Co. Ltd.) were divided into three groups (i.e., Groups 1-3) in this study. In Group I, 6 rats, as negative control, were given no treatment; 6 rats, as positive control, were given 3.35 mg/kg/day Sennosides (Through®, Chung Mei Pharmaceutical Co., Ltd; Active ingredient: Sennosides 20 mg, as sennoside A+B 12 mg, Lot. 012F 006); 6 rats were treated STD05 (8 mg/kg/day); 6 rats were treated with an extract fraction containing aloe-emodin, rhein, and emodin (“ARE”, 8 mg/kg/day); 6 rats were treated with Aloe-emodin (4 mg/kg/day); and 6 rats were treated with Rhein (4 mg/kg/day). In Group II, 6 rats, as negative control, were given no treatment; 6 rats, as positive control, were given 3.35 mg/kg/day Sennosides; 6 rats were treated STD05 (24 mg/kg/day); 6 rats were treated with an extract fraction containing ARE (24 mg/kg/day); 6 rats were treated with Chrysophanol (4 mg/kg/day); and 6 rats were treated with Emodin (4 mg/kg/day). In Group III, 6 rats, as negative control, were given no treatment; 6 rats were treated with Physcoin (4 mg/kg/day); and 6 rats were treated with a mixture of chrysophanol and physcion (8 mg/kg/day, “CP”). The experiments were carried out under controlled temperature, humidity, and lighting. Each rat was fed standard rat food and water ad libitum in housing that provided a 12-hour light/dark cycle. For statistical comparison, all of the rats were divided into six sets according to the body weights. The first part of the experiment studied the effect of the test substances on feces production. During the 10-day period, the body weights of the rats were weighed each day and recorded. The rat's feces was also studied three times in the manner described above during the 10-day period for any unusual observations. During the 10-day period, any rat that appeared dying was euthanized, dissected, and examined for any illness or injury. Any complications or illness were analyzed by H&E stains to determine the cause of death and to allow for dosage reconsiderations for future experiments. Summarized in Table 4 below are the effects of the compounds, mixtures, or extracts on the rat body weights.

In the case of `CC(=O)Oc1ccc(C(c2ccc(OC(C)=O)cc2)c2ccccn2)cc1` [Bisacodyl], the Water content (healthy male S.D. rats [1]; Day 11) was 64.45%, the Pellet count (healthy male S.D. rats [1]; Day 11) was 116 and the “Wet Weight” value (healthy male S.D. rats [1]; Day 11) was 33.84 g. The Water content (healthy male S.D. rats [1]; Day 15) was 68.34%, the Pellet count (healthy male S.D. rats [1]; Day 15) was 110 and the “Wet Weight” value (healthy male S.D. rats [1]; Day 15) was 41.64 g. For the same molecule, the Water content (healthy male S.D. rats [1]; Day 18) was 66.65%, the Pellet count (healthy male S.D. rats [1]; Day 18) was 81 and the “Wet Weight” value (healthy male S.D. rats [1]; Day 18) was 30.14 g. For the same molecule, the Water content (healthy male S.D. rats [1]; Day 21) was 68.02%, the Pellet count (healthy male S.D. rats [1]; Day 21) was 108 and the “Wet Weight” value (healthy male S.D. rats [1]; Day 21) was 40.13 g.
For `Cc1cc(O)c2c(c1)C(=O)c1cccc(O)c1C2=O` [Chrysophanol, chrysophanol], the enteric absorption rate [2] was “very low”, the “side effects often seen in herb extracts (cramping, bloating, gas, and diarrhea)” value [3] was “do not have the side effects” and the “increase of the feces amount (wet weight)” value (healthy male S.D. rats [4]; Day 1) was 19%. For the same molecule, the “increase of the feces amount (wet weight)” value (healthy male S.D. rats [4]; Day 5) was 16%, the “increase of the feces amount (wet weight)” value (healthy male S.D. rats [4]; Day 10) was 14% and the Pellet count (healthy male S.D. rats [4]; Day 1) was 128. For the same molecule, the Water content (healthy male S.D. rats [4]; Day 1) was 50.82%, the “Wet Weight” value (healthy male S.D. rats [4]; Day 1) was 28.86 g and the Pellet count (healthy male S.D. rats [4]; Day 5) was 119. For the same molecule, the Water content (healthy male S.D. rats [4]; Day 5) was 51.22%, the “Wet Weight” value (healthy male S.D. rats [4]; Day 5) was 26.48 g and the Pellet count (healthy male S.D. rats [4]; Day 10) was 127. For the same molecule, the Water content (healthy male S.D. rats [4]; Day 10) was 56.52%, the “Wet Weight” value (healthy male S.D. rats [4]; Day 10) was 28.83 g and the “increase of the feces amount (wet weight), average” value (healthy male S.D. rats [4]; average of Days 1, 5 and 10) was 16%. For the same molecule, the Body weight Difference, Mean ([5]; group mean, Day 10 minus Day 1) was 33 g, the Body weight End Day 10, Mean ([5]; group mean) was 376 g and the “Body weight Difference” value ([5]; individual rats, Day 10 minus Day 1) was 40 and 20 and 30 (2×) and 25 and 50. The “Body weight End Day 10” value ([5]; individual rats) was 370 (3×) and 385 and 350 and 410.
